Measured values published in paper PMC4958244 (mBio, 2016).

Columns and labels:
[1] = target: T1, N-Als3p (Candida albicans, UniProt Q59L12); assay: CFG glycan array v5.[…]; format: binding; details: glycan printed on glass slide, N-Als3p NT-647 labelled
T1 construct: gene ALS3; N-terminal part (Ig-like adhesin domain); recombinant, purified from S. cerevisiae or E. coli as previously described

[2] = target: T1, N-Als3p; assay: SPR, immobilised BSA-GlcNAc; format: binding; details: GlcNAc shown as BSA glycoconjugate on CM5 chip, 25°C
[3] = target: T2, N-Epa1p (Nakaseomyces glabratus, UniProt Q6VBJ0); assay: SPR inhibition of binding to immobilised mucin; details: competition with porcine stomach mucin, lactose 6 µM to 1.5 mM, 25°C
T2 construct: gene EPA1; N-terminal PA14-like lectin domain; recombinant, purified from S. cerevisiae or E. coli as previously described
T2 sequence (Q6VBJ0 entry or part of it): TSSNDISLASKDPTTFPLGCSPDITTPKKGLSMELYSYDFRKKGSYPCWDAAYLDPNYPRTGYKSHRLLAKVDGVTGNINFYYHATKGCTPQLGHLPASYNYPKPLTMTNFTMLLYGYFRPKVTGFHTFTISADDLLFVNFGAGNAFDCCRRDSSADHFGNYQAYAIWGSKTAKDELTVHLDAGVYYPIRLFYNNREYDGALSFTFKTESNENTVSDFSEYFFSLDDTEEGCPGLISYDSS

[4] = target: Mucin, partially purified from porcine stomach (porcine); assay: SPR; Biacore 3000, 25°C; FN, mucin or laminin covalently immobilised on a CM5 chip by amine coupling, adhesin domain flowed over; dissociation constants in the equilibrium state
[5] = target: Laminin, from human placenta (human); assay: as above
[6] = target: Fibronectin (FN) (UniProt P02751 32-2477); assay: as above; details: both partners purified
Fibronectin (FN), sequence (P02751 32-2477): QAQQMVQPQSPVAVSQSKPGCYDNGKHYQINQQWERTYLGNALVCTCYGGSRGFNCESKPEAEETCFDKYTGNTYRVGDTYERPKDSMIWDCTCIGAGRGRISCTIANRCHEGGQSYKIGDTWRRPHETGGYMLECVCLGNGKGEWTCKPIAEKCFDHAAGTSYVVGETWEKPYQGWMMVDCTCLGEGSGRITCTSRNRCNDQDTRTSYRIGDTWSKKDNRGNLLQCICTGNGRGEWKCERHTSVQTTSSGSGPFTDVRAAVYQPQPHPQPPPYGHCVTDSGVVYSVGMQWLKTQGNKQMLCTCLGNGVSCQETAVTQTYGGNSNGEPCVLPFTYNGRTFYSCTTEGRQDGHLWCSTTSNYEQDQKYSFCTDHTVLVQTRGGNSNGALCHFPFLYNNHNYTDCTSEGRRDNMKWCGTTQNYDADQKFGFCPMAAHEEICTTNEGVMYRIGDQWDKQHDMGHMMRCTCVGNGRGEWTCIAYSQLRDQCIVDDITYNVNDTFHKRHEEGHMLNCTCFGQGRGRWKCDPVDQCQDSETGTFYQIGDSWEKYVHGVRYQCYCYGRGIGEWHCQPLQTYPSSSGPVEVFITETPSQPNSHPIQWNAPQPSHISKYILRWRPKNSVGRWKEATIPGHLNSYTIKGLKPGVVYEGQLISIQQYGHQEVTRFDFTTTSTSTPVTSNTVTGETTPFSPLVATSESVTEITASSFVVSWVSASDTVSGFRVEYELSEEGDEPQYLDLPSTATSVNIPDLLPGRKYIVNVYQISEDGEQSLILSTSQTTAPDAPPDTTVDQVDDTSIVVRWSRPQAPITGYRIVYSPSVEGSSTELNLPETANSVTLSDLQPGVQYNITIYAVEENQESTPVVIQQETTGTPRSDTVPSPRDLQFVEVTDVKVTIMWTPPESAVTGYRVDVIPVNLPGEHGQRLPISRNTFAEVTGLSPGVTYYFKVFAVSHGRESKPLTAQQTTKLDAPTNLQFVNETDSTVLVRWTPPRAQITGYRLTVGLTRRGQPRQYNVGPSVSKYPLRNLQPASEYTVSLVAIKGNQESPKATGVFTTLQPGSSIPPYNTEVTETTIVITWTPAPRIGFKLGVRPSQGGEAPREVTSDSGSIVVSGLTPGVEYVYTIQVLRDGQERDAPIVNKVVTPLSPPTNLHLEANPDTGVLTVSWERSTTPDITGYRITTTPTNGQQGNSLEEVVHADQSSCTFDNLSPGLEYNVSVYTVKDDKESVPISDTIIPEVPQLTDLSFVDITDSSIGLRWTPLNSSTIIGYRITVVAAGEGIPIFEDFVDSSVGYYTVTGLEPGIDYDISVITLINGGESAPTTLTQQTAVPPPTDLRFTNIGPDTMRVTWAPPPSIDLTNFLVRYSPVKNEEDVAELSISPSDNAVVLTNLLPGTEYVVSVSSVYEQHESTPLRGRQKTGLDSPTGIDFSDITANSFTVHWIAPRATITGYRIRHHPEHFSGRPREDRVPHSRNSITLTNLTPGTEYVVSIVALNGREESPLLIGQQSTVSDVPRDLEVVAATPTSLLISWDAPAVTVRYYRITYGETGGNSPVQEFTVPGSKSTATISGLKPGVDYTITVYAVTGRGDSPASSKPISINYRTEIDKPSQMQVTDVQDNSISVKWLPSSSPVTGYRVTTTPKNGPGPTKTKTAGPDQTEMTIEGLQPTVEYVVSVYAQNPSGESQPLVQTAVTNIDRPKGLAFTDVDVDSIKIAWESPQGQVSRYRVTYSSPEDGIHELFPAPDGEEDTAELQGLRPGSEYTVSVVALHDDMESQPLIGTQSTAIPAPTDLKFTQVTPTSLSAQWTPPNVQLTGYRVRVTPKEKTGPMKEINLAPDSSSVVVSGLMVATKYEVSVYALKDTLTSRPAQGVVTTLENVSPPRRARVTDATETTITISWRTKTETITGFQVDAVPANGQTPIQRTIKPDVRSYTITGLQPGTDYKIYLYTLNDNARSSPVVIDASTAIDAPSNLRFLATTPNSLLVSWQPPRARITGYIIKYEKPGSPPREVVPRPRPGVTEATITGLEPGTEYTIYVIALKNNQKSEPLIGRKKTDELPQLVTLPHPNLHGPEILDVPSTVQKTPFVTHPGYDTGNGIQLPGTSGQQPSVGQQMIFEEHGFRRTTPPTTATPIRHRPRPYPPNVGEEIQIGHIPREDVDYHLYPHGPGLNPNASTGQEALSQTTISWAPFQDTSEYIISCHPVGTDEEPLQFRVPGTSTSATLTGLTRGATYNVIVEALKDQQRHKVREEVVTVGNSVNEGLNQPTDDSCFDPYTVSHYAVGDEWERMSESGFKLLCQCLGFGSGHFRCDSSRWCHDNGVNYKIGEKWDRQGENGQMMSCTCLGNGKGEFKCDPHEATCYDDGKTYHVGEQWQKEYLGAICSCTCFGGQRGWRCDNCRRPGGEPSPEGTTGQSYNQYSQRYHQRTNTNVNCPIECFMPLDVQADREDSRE

CC(=O)N[C@H]1[C@H](O[C@H]2[C@@H](O)[C@@H](CO)OC(O)[C@@H]2O)O[C@H](CO)[C@H](O)[C@@H]1O[C@@H]1O[C@H](CO)[C@H](O)[C@H](O)[C@H]1O[C@@H]1O[C@@H](C)[C@@H](O)[C@@H](O)[C@@H]1O (some centres unmarked) [Fucα-1,2-Galβ-1,3-GalNAcβ-1,3-Gal]
CFG glycan array v5.0 ([1]; 200 µg/ml): GlcNAcβ-1,3GalNAc and Fucα-1,2-Galβ-1,3-GalNAcβ-1,3-Gal were also recognized

CC(=O)N[C@H]1C(O)O[C@H](CO)[C@@H](O)[C@@H]1O (some centres unmarked) [GlcNAc]
SPR, immobilised BSA-GlcNAc [2]: SPR experiments confirmed the binding of N-Als3p to GlcNAc

CC(=O)N[C@H]1[C@H](O[C@H]2[C@@H](O)[C@@H](CO)OC(O)[C@@H]2NC(C)=O)O[C@H](CO)[C@@H](O)[C@@H]1O (some centres unmarked) [GlcNAcβ-1,3GalNAc]
CFG glycan array v5.0 ([1]; 200 µg/ml): GlcNAcβ-1,3GalNAc and Fucα-1,2-Galβ-1,3-GalNAcβ-1,3-Gal were also recognized

CC(=O)N[C@H]1C(O)O[C@H](CO)[C@H](O)[C@@H]1O[C@@H]1O[C@H](CO)[C@H](O)[C@H](O)[C@H]1O (some centres unmarked) [T antigen]
CFG glycan array v5.0 ([1]; 200 and 20 µg/ml): N-Als3p bound also to the T antigen

OC[C@H]1O[C@@H](O[C@H]2[C@H](O)[C@@H](O)C(O)O[C@@H]2CO)[C@H](O)[C@@H](O)[C@H]1O (some centres unmarked) [lactose]
SPR inhibition of binding to immobilised mucin [3]: binding of N-Epa1p to mucin could be blocked by lactose in a concentration-dependent manner

N-terminal domain of Epa1p from Candida glabrata (N-Epa1p) (domain or fragment)
Kd [4]: 4.67 µM

N-terminal part of Als3p from Candida albicans (N-Als3p) (domain or fragment)
Kd [5]: 410 µM

B1: N-terminal part of Als3p from Candida albicans (N-Als3p) (domain or fragment)
chain: KTITGVFNSFNSLTWSNAATYNYKGPGTPTWNAVLGWSLDGTSASPGDTFTLNMPCVFKFTTSQTSVDLTAHGVKYATCQFQAGEEFMTFSTLTCTVSNTLTPSIKALGTVTLPLAFNVGGTGSSVDLEDSKCFTAGTNTVTFNDGGKKISINVDFERSNVDPKGYLTDSRVIPSLNKVSTLFVAPQCANGYTSGTMGFANTYGDVQIDCSNIHVGITKGLNDWNYPVSSESFSYTKTCSSNGIFITYKNVPAGYRPFVDAYISATDVNSYTLSYANEYTCAGGYWQRAPFTLRWTGYRNSDAGSNGIVIVATTRTVTDSTTAVTTLPFDPNRDKTKTIEILKPIPTTTITTSYVGVTTSYSTKTAPIGETATVIVDIPYHTTTTVTSKWTGTITSTTTHTNPTDSIDTVIVQVP
modifications: Secreted from S. cerevisiae, C-terminal His tag omitted. The strain of the allele is not given; the SC5314 reference entry is used. Limits 18-432 are printed in Text S1.
Kd [6]: 10 ± 1 µM
